{"source": "patent US11891625B2", "about": "“Methods and compositions relating to hematopoietic stem cell expansion, enrichment, and maintenance” (CHILDREN'S MEDICAL CENTER CORPORATION, priority 2015, dated 2024)", "key": {"[1]": {"tested_on": "murine HSCs (Lineage- Sca1+ ckit+ CD34-Flk2- CD150+ Fgd5 ZsGr+)", "experiment": "Ex vivo culture of 20 murine HSCs for 7 or 14 days (imaging, FACS of phenotypic HSCs)", "type": "cell-based", "settings": "7 or 14 days ex vivo, versus DMSO", "protocol": "Images taken at 4× magnification.\nFIGS. 9A-9B show the expansion of phenotypic murine HSCs for 14 days ex vivo. 20 murine HSCs (Lineage− Sca1+ ckit+ CD34−Flk2−CD150+Fgd5⋅ZsGr+) were cultured in the presence of DMSO, LSD1 inhibitor IV (LS), Tgfbeta inhibitor RepSox (RS), and the combination of both (C2) for 14 days. This method supports maintenance and expansion of ZsGr+ HSCs. […] FIG. 9B depicts the number of Lineage− Sca1+ ckit+ CD34−Flk2−CD150+Fgd5⋅ZsGr+ HSCs in each condition after 14 days of ex vivo culture.\nAn optimal combination of compounds that can be used to expand, enrich, and maintain the hematopoietic stem cell functional potential of hematopoietic stem cells includes a histone demethylase inhibitor and an inhibitor of the TGFβ receptor Alk5. […] Images taken at 4× magnification. […] FIGS. 9A-9B show the expansion of phenotypic HSCs for 14 days ex vivo. 20 murine HSCs (LSK34-Flk2-150+ZsGr+) were cultured in the presence of DMSO, LSD1 inhibitor IV (LS), Tgfbeta inhibitor RepSox (RS), and the combination of both (C2) for 14 days. This method supports maintenance and expansion of ZsGr+ HSCs. […] FIG. 9B: Number of ZsGr+ HSCs in each condition after 14 days of ex vivo culture. […] A) Bright-field and ZsGr images of 20 HSCs cultured for 4.5 days ex vivo in the presence of LSD1 inhibitor IV (LS), Tgfbeta inhibitor RepSox (RS), and the combination of both (C2). […]"}, "human cord blood HSCs": {"tested_on": "human cord blood HSCs", "experiment": "In vitro colony forming assay of human cord blood HSCs after 14 days of ex vivo culture", "type": "cell-based", "settings": "14 day cord blood HSC cultures", "protocol": "FIG. 30A depicts colony counts and composition adjusted to represent the entire well following 14 days of ex vivo culture (Note: only a fraction of the well was added to methocult for colony formation). FIG. 30B depicts the frequency of myeloid colony types from 14 day cord blood HSC cultures."}, "ZsGr+ murine HSCs": {"tested_on": "ZsGr+ murine HSCs", "experiment": "4.5 day ex vivo culture of 20 Fgd5 ZsGr+ HSCs (frequency and number of ZsGr+ cells)", "type": "cell-based", "settings": "4.5 days ex vivo culture", "source_text": "FIG. 10A depicts bright-field and ZsGr images of 20 Fgd5⋅ZsGr+ HSCs cultured for 4.5 days ex vivo in the presence of LSD1 inhibitor IV (LS), Tgfbeta inhibitor RepSox (RS), and the combination of both (C2). […] FIG. 10C depicts the number of ZsGr+ and ZsGr− cells after 4.5 day cultures.\nAn optimal combination of compounds that can be used to expand, enrich, and maintain the hematopoietic stem cell functional potential of hematopoietic stem cells includes a histone demethylase inhibitor and an inhibitor of the TGFβ receptor Alk5. […] Images taken at 4× magnification. […] FIGS. 9A-9B show the expansion of phenotypic HSCs for 14 days ex vivo. 20 murine HSCs (LSK34-Flk2-150+ZsGr+) were cultured in the presence of DMSO, LSD1 inhibitor IV (LS), Tgfbeta inhibitor RepSox (RS), and the combination of both (C2) for 14 days. This method supports maintenance and expansion of ZsGr+ HSCs. […] FIG. 9B: Number of ZsGr+ HSCs in each condition after 14 days of ex vivo culture. […] A) Bright-field and ZsGr images of 20 HSCs cultured for 4.5 days ex vivo in the presence of LSD1 inhibitor IV (LS), Tgfbeta inhibitor RepSox (RS), and the combination of both (C2). FIG. 10B: Frequency of ZsGr+ cells remaining following 4.5 days of ex vivo culture. FIG. 10C: Number of ZsGr+ (Green) and ZsGr− (Black) cells within 4.5 day cultures (See also FIGS. 11A-13F and 28A-32B)."}, "[2]": {"tested_on": "murine HSCs (lineage-, ckit+, Sca1+, CD150+, CD48-, Fgd5ZsGr+)", "experiment": "Culture of 40 murine HSCs for 12 days with compound cocktail plus RG108 and/or UNC0638, flow cytometry", "type": "cell-based", "settings": "cytokines plus cocktail incl. trichostatin A, plus either or both RG108 and UNC0638", "protocol": "40 murine HSCs (lineage−, ckit+, Sca1+, CD150+, CD48−, Fgd5ZsGr+) were cultured for 12 days in the presence of cytokines (SCF, TPO, and IL12) and a cocktail of compounds (Lithium chloride, nicotinamide, N-acetylcysteine, ascorbic acid, A83-01, and SB203580, trichostatin A) plus either or both DNA methyltransferase inhibitor (RG108) and G9a inhibitor (UNC0638). Flow cytometry plots of Fgd5+Lineage− cells from the indicated culture conditions are shown.\nA series of experiments was conducted in order to determine the relative contribution of compounds that modulate particular pathways to the expansion of hematopoietic stem cells. FIGS. 21A-21B show the contribution of each compound/pathway in ability to maintain and expand phenotypic HSCs during ex vivo culture. […] 200 cord blood HSCs were cultured for 12 days in serum free media supplemented with cytokines (SCF, TPO, FLT3L, IL3) in the presence of the indicated chemical combinations (Tgfbeta inhibitor (A, A83-01), HDAC inhibitor (TSA, Trichostatin A), and LSD1 inhibitor (TC, Tranylcypromine)) or additionally supplemented with p38 inhibitor (p38i, SB203580) and analyzed by flow cytometry. FIG. 35A: Immunophenotype of the cells post-culturing, and FIG. 35B: quantification of immunophenotypic HSCs (Lineage− CD34+ CD45RA−CD38− CD90+CD49F+) cultured in the indicated conditions."}, "[3]": {"tested_on": "human mobilized peripheral blood CD34+ cells", "experiment": "Culture of 3000 CD34+ enriched mobilized peripheral blood cells for 7 days with chemicals or combinations, flow cytometry", "type": "cell-based", "settings": "combinations with A83-01, Tranylcypromine, SB203580", "experimental": "3000 CD34+ enriched mobilized peripheral blood cells were cultured for 7 days in serum free media supplemented with cytokines (SCF, TPO, FLT3L, IL3) in the presence of the indicated chemical combinations (Tgfbeta inhibitor (A, A83-01), pan-HDAC inhibitor (TSA, Trichostatin A), LSD1 inhibitor (TC, Tranylcypromine), p38 inhibitor (p38i, SB203580), HDAC1/2 inhibitor (Rom, Romidepsin)) and analyzed by flow cytometry. FIG. 41A depicts the immunophenotype of the cells, FIG. 41B depicts the percentage of indicated populations, and FIG. 41C depicts quantification of immunophenotypic HSCs (Lineage− CD34+ CD45RA−CD38− CD90+CD49F+) 7 days post-culturing in the indicated conditions.\n3000 CD34+ enriched mobilized peripheral blood cells were cultured for 7 days in serum free media supplemented with cytokines (SCF, TPO, FLT3L, IL3) in the presence of the indicated chemical combinations (Tgfbeta inhibitor (A, A83-01), pan-HDAC inhibitor (TSA, Trichostatin A), LSD1 inhibitor (TC, Tranylcypromine), p38 inhibitor (p38i, SB203580), HDAC1/2 inhibitor (Rom, Romidepsin)) and analyzed by flow cytometry. FIG. 41A: immunophenotype of the cells, FIG. 41B: percentage of indicated populations, and FIG. 41C: quantification of immunophenotypic HSCs (Lineage− CD34+ CD45RA− CD38− CD90+CD49F+) 7 days post-culturing in the indicated conditions."}, "p38 MAPK": {"tested_on": "p38 MAPK", "settings": "as described in U.S. Pat. No. 6,602,896; cited from earlier work"}, "[4]": {"tested_on": "human CD34+ peripheral blood and cord blood hematopoietic stem cells", "settings": "as described in the cited literature; cited from earlier work"}, "[5]": {"tested_on": "murine HSCs (lineage-, ckit+, Sca1+, CD150+, CD48-, Fgd5ZsGr+)", "experiment": "Culture of 100 murine HSCs with compound cocktail plus VPA or TSA, day 7 flow cytometry", "type": "cell-based", "settings": "cytokines plus cocktail (Lithium chloride, nicotinamide, N-acetylcysteine, ascorbic acid, A83-01, SB203580)", "protocol": "100 murine HSCs (lineage−, ckit+, Sca1+, CD150+, CD48−, Fgd5ZsGr+) were cultured in the presence of cytokines only (SCF, TPO, and IL12) in the absence of compounds (Standard), or additionally supplemented with a cocktail of compounds (Lithium chloride, nicotinamide, N-acetylcysteine, ascorbic acid, A83-01, and SB203580) plus either valproic acid (VPA) or trichostatin A (TSA), which are structurally distinct HDAC inhibitors. FIG. 22A depicts day 7 flow cytometric analysis and FIG. 22B depicts the proportion of Fgd5−ZsGreen+ Sca1+ cells for each replicate.\nIn addition to inhibitors of histone demethylation and TGFβ signaling, histone deacetylase inhibitors also promote the expansion, enrichment, and maintenance of hematopoietic stem cells ex vivo. […] 3000 CD34+ enriched mobilized peripheral blood cells were cultured for 7 days in serum free media supplemented with cytokines (SCF, TPO, FLT3L, IL3) in the presence of the indicated chemical combinations (Tgfbeta inhibitor (A, A83-01), pan-HDAC inhibitor (TSA, Trichostatin A), LSD1 inhibitor (TC, Tranylcypromine), p38 inhibitor (p38i, SB203580), HDAC1/2 inhibitor (Rom, Romidepsin)) and analyzed by flow cytometry. […]"}}}
{"smiles": "CN1CCN(C(=O)CN[C@@H]2C[C@H]2c2ccc(OCc3ccccc3)cc2)CC1", "note": "[LS]", "values": [{"measurement": "appearance of cultures (images at 4x magnification)", "setting": "[1]", "value": "more homogenous and less differentiated"}, {"measurement": "frequency of GEMM colonies", "setting": "human cord blood HSCs", "value": "elevated frequency of most primitive GEMM colonies"}, {"measurement": "maintenance and expansion of ZsGr+ HSCs", "setting": "ZsGr+ murine HSCs", "value": "supports maintenance and expansion of ZsGr+ murine HSCs"}]}
{"smiles": "O=C(O)[C@H](Cc1c[nH]c2ccccc12)N1C(=O)c2ccccc2C1=O", "note": "[RG108, N-Phthalyl-L-tryptophan]", "values": [{"measurement": "heterogeneity of Fgd5 ZsGr+ cells with respect to CD48 and Sca1 expression", "setting": "[2]", "value": "reduces heterogeneity"}]}
{"smiles": "Cc1cccc(-c2n[nH]cc2-c2ccc3ncccc3n2)n1", "note": "[RS]", "values": [{"measurement": "frequency of GEMM colonies", "setting": "human cord blood HSCs", "value": "elevated frequency of most primitive GEMM colonies"}, {"measurement": "maintenance and expansion of ZsGr+ HSCs", "setting": "ZsGr+ murine HSCs", "value": "supports maintenance and expansion of ZsGr+ murine HSCs"}]}
{"smiles": "C/C=C1\\NC(=O)[C@H]2CSSCC/C=C/[C@H](CC(=O)N[C@H](C(C)C)C(=O)N2)OC(=O)[C@H](C(C)C)NC1=O", "note": "[Romidepsin]", "values": [{"measurement": "replacement of pan HDAC inhibitor in chemical combination for maintenance/expansion of human HSCs", "setting": "[3]", "value": "can replace the pan HDAC inhibitor Trichostatin A for efficient ex vivo maintenance/expansion of human HSCs"}]}
{"smiles": "Oc1ccc(-c2nc(-c3ccc(F)cc3)c(-c3ccncc3)[nH]2)cc1", "note": "[SB202190, 4(4-Fluorophenyl)-2-(4-hydroxyphenyl)-5-(4-pyridyl) 1H-imidazole]", "values": [{"measurement": "selectivity among p38 MAPK isoforms", "setting": "p38 MAPK", "value": "selectively antagonize p38 MAPK α- and β-isoforms without disrupting the enzymatic activity of the γ- or δ-isoforms"}]}
{"smiles": "CC(C)n1cnc2c(NCCc3ccc(O)cc3)nc(-c3csc4ccccc34)nc21", "note": "[SR1]", "values": [{"measurement": "expansion and self-renewal of human CD34+ hematopoietic stem cells", "setting": "[4]", "value": "promotes expansion and self-renewal of human CD34+ peripheral blood and cord blood hematopoietic stem cells"}]}
{"smiles": "COc1cc2c(NC3CCN(C(C)C)CC3)nc(C3CCCCC3)nc2cc1OCCCN1CCCC1", "note": "[UNC0638]", "values": [{"measurement": "heterogeneity of Fgd5 ZsGr+ cells with respect to CD48 and Sca1 expression", "setting": "[2]", "value": "reduces heterogeneity"}]}
{"smiles": "CC(/C=C/C(=O)NO)=C\\[C@@H](C)C(=O)c1ccc(N(C)C)cc1", "note": "[trichostatin A]", "values": [{"measurement": "maintenance of immunophenotypic HSCs by structurally distinct HDAC inhibitors", "setting": "[5]", "value": "function equivalently to maintain immunophenotypic HSCs"}]}
{"smiles": "CCCC(CCC)C(=O)O", "note": "[valproic acid]", "values": [{"measurement": "maintenance of immunophenotypic HSCs by structurally distinct HDAC inhibitors", "setting": "[5]", "value": "function equivalently to maintain immunophenotypic HSCs"}]}
